Laboratory results from patent US20130217721A1, “COMPOSITIONS AND METHODS FOR DETECTION AND TREATMENT OF B-RAF INHIBITOR-RESISTANT MELANOMAS” (The Regents of the University of California, priority 2010, published 2013).
Values joined by “and” are separate entries in the source; they are usually repeats but may differ in a detail not shown here. Identical values can stand only once. Like-named read-outs stand apart in the source and are kept apart here.

Experiments:
melanoma = assay: PLX4032 clinical trial patients: best overall response and progression free survival (Table 2); assay type: in vivo, human; conditions: individual PLX4032 clinical trial patient
[1] = tested on: M249 R sub-line (M249 R4); assay: Cell survival / proliferation assay (72 h); assay type: cell-based, human; conditions: M249 R sub-lines
Method: (§1) Cells were maintained in Dulbecco's modified Eagle medium (DMEM) with 10 or 20% fetal bovine serum and glutamine. shRNAs were sub-cloned into the lentiviral vector pLL3.7 and infections carried out with protamine sulphate. Stocks of PLX4032 (Plexxikon) and AZD6244 (commercially available) were made in DMSO. Cells were quantified using CellTiter-GLO Luminescence (Promega).
(§2) Cell proliferation experiments were performed in a 96-well format (five replicates), and baseline quantification performed at 24 h after cell seeding along with initiation of drug treatments (72 h). Stocks and dilutions of PLX4032 (Plexxikon), AZD6244 (Selleck Chemicals) and U0126 (Promega) were made in DMSO. siRNA pool (Dharmacon) transfections were carried out in 384-well format. TransIT transfection reagent (Mirus) was added to each well and incubated at 37° C. for 20 min. Subsequently, cells were reverse transfected, and the mixture was incubated for 51-61 h at 37° C. Cells were quantified using CellTiter 96 Aqueous One Solution (Promega) or CellTiter-GLO Luminescence (Promega) following the manufacturer's recommendations.
Cell culture, infections and drug treatments. Cells were maintained in DMEM with 10 or 20% fetal bovine serum and glutamine. shRNAs for B-RAF and C-RAF were sub-cloned into the lentiviral vector pLL3.7; pBabe B-RAF (V600E) was purchase (plasmid 17544, Addgene); viral supernatants generated by co-transfection with three packaging plasm ids into HEK293T cells; and infections carried out with protamine sulfate. Stocks and dilutions of PLX4032 (Plexxikon, Berkeley, Calif.) and AZD6244 (commercially available) were made in DMSO. Cells were quantified using CellTiter-GLO Luminescence (Promega) or crystal violet staining followed by NIH Image J quantification.

[2] = tested on: M229 R sub-lines (M229 R5); assay: Cell survival / proliferation assay (72 h); assay type: cell-based, human; conditions: M229 R sub-lines
Method: as §1, §2

[3] = tested on: Pt55 R short-term culture; assay: Cell survival / proliferation assay (72 h); assay type: cell-based, human
Method: as §1, §2

[4] = tested on: M238 R sub-lines (M238 R1); assay: Cell survival / proliferation assay (72 h); assay type: cell-based, human; conditions: M238 R sub-lines
Method: as §1, §2

[5] = tested on: Pt48 R short-term culture; assay: Cell survival / proliferation assay (72 h); assay type: cell-based, human
Method: as §1, §2

[6] = tested on: MAPK signalling (p-MEK1/2 and p-ERK1/2); conditions: PLX4032 0, 0.01, 0.1, 1 and 10 μM
Method: FIG. 1A, Parental and PLX4032-resistant sub-lines were treated with increasing PLX4032 concentration (0, 0.01, 0.1, 1 and 10 μM), and the effects on MAPK signalling were determined by immunoblotting for p-MEK1/2 and p-ERK1/2 levels. Total MEK1/2, ERK1/2 and tubulin levels, loading controls.
Western blots were probed with antibodies against p-MEK1/2 (S217/221), MEK1/2, p-ERK1/2 (T202N204), ERK1/2, PDGFRβ, and EGFR (Cell Signaling Technologies), and N-RAS (Santa Cruz Biotechnology), pan-RAS (Thermo Scientific) and tubulin (Sigma). p-RTK arrays were performed according to the manufacturer's recommendations (Human Phospho-RTK Array Kit, R&D Systems).
Cell lysates for western blotting were made in RIPA (Sigma) with protease inhibitor cocktail (Roche) and phosphatase inhibitor cocktails I and II (Santa Cruz Biotechnology). Western blots were probed with antibodies against p-MEK1/2 (S217/221), total MEK1/2, p-ERK1/2 (T202/Y204), total ERK1/2, PDGFRβ, and EGFR (all from Cell Signaling Technologies), B-RAF and N-RAS (Santa Cruz Biotechnology), pan-RAS (Thermo Scientific) and tubulin (Sigma). p-RTK arrays were performed according to the manufacturer's recommendations (Human Phospho-RTK Array Kit, R&D Systems).

[7] = tested on: V600EB-RAF-positive melanomas; conditions: patients with V600EB-RAF-positive melanomas; cited from earlier work
[8] = Homo sapiens, not reached up to 10 μM, read-out: GI50, concentration of drug that inhibits growth of cells by 50%

CCCS(=O)(=O)Nc1ccc(F)c(C(=O)c2c[nH]c3ncc(-c4ccc(Cl)cc4)cc23)c1F [PLX4032]
Best overall response (melanoma): 83% and 14% and 37% and 53% (2×) and 73% and 84% and 32% and 42% and 24% and 57% and 75%
Progression free survival (melanoma): 161 days and 113 days (2×) and 270 days and 106 days and 141 days and 149 days and 137 days and 126 days (2×) and 466 days and 84 days
GI50 [1, 8]: > 10 µM
growth at low PLX4032 concentrations ([1]; in contrast to parental cells): paradoxically enhanced growth
GI50 [2, 8]: > 10 µM
growth at low PLX4032 concentrations ([2]; in contrast to parental cells): paradoxically enhanced growth
growth resistance to B-RAF inhibitor [3]: resistance
GI50 [4, 8]: > 10 µM
growth at low PLX4032 concentrations ([4]; in contrast to parental cells): paradoxically enhanced growth
growth resistance to B-RAF inhibitor [5]: resistance
PLX4032-induced decreases in p-MEK1/2 and p-ERK1/2 ([6]; M229 R5): similarly sensitive
PLX4032-induced decreases in p-MEK1/2 and p-ERK1/2 ([6]; M238 R1): similarly sensitive
PLX4032-induced MEK/ERK inhibition ([6]; M249 R4): strong resistance
p-MEK1/2 and p-ERK1/2 levels ([6]; all parental cells (M229, M238, M249)): dose-dependent decreases
anti-tumor response rate [7]: 80%
